# Test results: ChEMBL document CHEMBL1201862, “PubChem BioAssay data set” (2004)
# Calls of active or inactive are those of the source.
# What was measured:
# Cytochrome P450 3A4 [1] = molecular target: T1, Cytochrome P450 3A4 (Homo sapiens, UniProt P08684);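 further: CYP3A4 tested as one member of a cytochrome P450 panel screen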
# [2] = microbe, parasite or virus in culture; type: functional; conditions: Mycobacterium tuberculosis
# [3] = THP-1 cell cytotoxicity, dose response, cytotoxicity control for non-replicating M. tuberculosis project (AID 489025); type: functional
# cells = type: functional
# Cytochrome P450 2C19 = Cytochrome P450 2C19 (Homo sapiens, UniProt P33261); experiment: Cytochrome panel assay with activity outcomes. Panel member name: p450-cyp2c19 Compounds with AC50 equal or less than 10 uM are considered active; type: functional
# Chain of Cytochrome P450 2C19 (P33261 whole entry): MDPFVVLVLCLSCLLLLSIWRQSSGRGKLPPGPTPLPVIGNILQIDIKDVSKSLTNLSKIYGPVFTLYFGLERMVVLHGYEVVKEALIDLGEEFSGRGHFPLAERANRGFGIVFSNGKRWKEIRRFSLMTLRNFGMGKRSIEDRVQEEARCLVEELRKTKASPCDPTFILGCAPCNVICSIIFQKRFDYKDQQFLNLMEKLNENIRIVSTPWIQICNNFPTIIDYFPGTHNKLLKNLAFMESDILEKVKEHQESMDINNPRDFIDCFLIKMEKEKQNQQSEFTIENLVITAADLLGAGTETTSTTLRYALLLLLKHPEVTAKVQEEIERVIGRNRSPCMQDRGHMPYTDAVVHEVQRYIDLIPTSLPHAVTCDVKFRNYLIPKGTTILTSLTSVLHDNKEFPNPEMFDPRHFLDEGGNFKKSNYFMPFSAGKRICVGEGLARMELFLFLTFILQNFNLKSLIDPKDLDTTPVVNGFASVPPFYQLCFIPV
# Cytochrome P450 2C9 [4] = molecular target: T2, Cytochrome P450 2C9 (Homo sapiens, UniProt P11712)
# T2 sequence (P11712 whole entry): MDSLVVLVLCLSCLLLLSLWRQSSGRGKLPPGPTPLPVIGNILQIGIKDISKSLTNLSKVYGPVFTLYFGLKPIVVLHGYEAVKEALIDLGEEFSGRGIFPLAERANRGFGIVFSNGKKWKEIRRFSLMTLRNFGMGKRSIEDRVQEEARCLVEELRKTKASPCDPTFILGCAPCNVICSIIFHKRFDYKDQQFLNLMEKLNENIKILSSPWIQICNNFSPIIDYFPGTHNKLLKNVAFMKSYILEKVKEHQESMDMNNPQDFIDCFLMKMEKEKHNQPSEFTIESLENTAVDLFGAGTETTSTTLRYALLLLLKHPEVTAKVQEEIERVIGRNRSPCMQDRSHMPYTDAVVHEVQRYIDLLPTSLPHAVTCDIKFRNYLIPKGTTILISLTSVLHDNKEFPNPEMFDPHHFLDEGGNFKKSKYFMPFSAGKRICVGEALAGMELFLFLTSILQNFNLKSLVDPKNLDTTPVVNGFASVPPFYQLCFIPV
# Cytochrome P450 3A4 [5] = molecular target: T1, Cytochrome P450 3A4; remark: listed apart in the source
# Cytochrome P450 2C9 [6] = molecular target: T2, Cytochrome P450 2C9; remark: listed apart in the source
# [7] = test system: Streptococcus sp. 'group A'; experiment: growth inhibition of control SK(-) GAS strain, dose response, counter-screen for streptokinase expression inhibitor project, luminescence, kanamycin, BacTiterGlo, confirmation (AID 1900); type: functional, organism-based
# Streptococcus = experiment: Group A Streptococcus viability loss, dose response, counter-screen for streptokinase expression inhibitor project, luminescence, BacTiterGlo (AID 1915); type: functional, organism-based;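 further: potency for reduction of bacterial viability or growth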
# [8] = Luminescence Cell-Based Dose Retest to Confirm Inhibitors of Cancer Stem Cells. [Related pubchem assays (depositor defined):AID2717, AID2721]; type: functional; conditions: Homo sapiens
# [9] = molecular target: T3, Corticotropin-releasing factor receptor 2/Corticotropin-releasing factor-binding protein (Homo sapiens, UniProt P24387+Q13324); experiment: activators of CRF receptor 2 with binding protein – uHTS hits, confirmation (AID 602473); type: functional; conditions: read-out: EC50_Mean
# T3 sequence (Q13324 whole entry): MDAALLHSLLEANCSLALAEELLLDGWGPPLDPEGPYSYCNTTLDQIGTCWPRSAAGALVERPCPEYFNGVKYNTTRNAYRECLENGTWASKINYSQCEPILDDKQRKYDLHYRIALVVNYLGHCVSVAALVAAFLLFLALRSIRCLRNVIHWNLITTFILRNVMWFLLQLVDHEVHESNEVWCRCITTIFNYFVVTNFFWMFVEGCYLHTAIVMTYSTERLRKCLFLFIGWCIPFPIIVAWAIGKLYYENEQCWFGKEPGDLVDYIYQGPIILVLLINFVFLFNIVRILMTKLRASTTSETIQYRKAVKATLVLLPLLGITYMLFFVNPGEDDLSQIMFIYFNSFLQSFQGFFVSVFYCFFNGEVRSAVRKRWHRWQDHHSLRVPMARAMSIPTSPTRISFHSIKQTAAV
# T3 sequence (P24387 whole entry): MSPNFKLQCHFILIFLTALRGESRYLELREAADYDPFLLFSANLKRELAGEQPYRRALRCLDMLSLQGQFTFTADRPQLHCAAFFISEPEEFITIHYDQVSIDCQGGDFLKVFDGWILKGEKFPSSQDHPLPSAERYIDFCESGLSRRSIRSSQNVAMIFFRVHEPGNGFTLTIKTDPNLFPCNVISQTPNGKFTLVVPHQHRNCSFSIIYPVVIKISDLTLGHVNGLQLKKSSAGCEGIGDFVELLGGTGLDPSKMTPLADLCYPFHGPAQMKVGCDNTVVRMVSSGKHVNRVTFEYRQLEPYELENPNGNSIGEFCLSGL
# Cytochrome P450 2D6 = Cytochrome P450 2D6 (Homo sapiens, UniProt P10635);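 further: CYP2D6 member of a cytochrome P450 panel assay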
# Chain of Cytochrome P450 2D6 (P10635 whole entry): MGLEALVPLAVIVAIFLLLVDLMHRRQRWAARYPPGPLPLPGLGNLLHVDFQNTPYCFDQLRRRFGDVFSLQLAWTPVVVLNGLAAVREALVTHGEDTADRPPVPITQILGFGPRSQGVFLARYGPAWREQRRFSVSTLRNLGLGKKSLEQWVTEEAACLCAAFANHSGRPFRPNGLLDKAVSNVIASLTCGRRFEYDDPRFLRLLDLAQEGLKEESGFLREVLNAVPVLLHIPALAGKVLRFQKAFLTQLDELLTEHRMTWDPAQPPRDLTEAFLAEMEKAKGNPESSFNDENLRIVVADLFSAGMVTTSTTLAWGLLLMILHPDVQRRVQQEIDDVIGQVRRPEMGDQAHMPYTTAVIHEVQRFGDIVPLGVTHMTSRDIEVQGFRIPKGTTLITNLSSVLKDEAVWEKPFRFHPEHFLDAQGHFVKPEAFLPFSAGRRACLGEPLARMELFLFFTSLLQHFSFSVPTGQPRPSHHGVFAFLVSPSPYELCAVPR
# Cytochrome P450 1A2 = molecular target: T4, Cytochrome P450 1A2 (Homo sapiens, UniProt P05177);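 further: PubChem cytochrome P450 panel assay, CYP1A2 panel member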
# T4 sequence (P05177 whole entry): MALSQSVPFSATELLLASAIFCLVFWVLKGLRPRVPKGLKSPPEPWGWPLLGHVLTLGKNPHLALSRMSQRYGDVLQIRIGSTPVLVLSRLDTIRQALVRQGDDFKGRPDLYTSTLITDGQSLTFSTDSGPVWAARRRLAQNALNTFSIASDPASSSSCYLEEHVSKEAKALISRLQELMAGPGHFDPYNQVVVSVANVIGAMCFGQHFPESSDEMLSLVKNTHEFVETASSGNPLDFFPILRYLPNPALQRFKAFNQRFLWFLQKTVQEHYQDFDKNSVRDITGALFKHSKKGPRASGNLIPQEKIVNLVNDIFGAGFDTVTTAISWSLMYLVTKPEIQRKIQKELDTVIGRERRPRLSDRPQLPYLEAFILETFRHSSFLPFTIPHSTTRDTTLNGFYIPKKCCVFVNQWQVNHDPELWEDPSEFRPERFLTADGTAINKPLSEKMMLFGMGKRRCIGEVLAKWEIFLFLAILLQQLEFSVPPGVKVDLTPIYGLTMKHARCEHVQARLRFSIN
# SUMO-activating enzyme = SUMO-activating enzyme (Homo sapiens, UniProt Q9UBT2); experiment: SUMOylation inhibitor hit validation, confirmation, SUMOylation inhibitor project, biochemical, AlphaScreen (AID 2018); type: functional
# Chain of SUMO-activating enzyme (Q9UBE0 whole entry): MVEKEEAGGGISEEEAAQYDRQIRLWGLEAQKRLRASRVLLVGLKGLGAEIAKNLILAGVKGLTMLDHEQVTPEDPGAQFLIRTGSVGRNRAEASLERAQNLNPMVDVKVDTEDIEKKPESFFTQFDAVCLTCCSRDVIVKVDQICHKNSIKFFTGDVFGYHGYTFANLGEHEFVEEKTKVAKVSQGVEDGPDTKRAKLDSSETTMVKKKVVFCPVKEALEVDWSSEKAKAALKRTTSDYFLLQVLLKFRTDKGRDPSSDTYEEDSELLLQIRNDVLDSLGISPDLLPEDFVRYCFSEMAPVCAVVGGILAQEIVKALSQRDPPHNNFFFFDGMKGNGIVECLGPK
# Chain of SUMO-activating enzyme (Q9UBT2 whole entry): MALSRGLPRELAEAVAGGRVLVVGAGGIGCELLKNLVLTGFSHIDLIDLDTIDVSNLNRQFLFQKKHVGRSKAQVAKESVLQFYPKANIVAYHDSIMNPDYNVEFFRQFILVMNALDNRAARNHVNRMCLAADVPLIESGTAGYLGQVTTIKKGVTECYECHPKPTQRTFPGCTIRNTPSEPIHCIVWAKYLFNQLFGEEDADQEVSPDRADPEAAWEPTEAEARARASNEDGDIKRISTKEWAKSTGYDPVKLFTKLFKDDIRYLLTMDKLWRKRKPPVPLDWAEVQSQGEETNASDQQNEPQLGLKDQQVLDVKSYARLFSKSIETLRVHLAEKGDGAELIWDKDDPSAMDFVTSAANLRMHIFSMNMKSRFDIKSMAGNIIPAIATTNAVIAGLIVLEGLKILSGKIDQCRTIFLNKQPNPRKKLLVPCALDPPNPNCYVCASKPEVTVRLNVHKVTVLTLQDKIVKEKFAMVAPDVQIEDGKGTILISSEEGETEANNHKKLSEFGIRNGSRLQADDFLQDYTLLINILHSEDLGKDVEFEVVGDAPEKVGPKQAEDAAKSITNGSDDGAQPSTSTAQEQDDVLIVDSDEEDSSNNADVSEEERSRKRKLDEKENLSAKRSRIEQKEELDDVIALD
# Bcl-2-related protein A1 = molecular target: T5, Bcl-2-related protein A1 (Mus musculus, UniProt Q07440); type: functional;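 further: confirmatory dose–response counterscreen on Bfl-1, used to check hits from a UBC13 polyubiquitin inhibitor campaign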
# T5 sequence (Q07440 whole entry): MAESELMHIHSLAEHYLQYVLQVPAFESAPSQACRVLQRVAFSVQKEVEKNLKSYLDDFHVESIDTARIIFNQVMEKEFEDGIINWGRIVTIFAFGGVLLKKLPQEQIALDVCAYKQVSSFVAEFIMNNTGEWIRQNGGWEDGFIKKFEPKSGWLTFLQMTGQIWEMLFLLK
# [10] = molecular target: T6, Ubiquitin-conjugating enzyme E2 N (Homo sapiens, UniProt P61088); type: functional
# T6 sequence (P61088 whole entry): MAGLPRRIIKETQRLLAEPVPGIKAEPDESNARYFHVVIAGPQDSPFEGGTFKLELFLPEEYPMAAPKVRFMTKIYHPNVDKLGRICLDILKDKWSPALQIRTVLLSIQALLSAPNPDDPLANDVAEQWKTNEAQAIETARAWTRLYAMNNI
# [11] = molecular target: T6, Ubiquitin-conjugating enzyme E2 N; type: functional; remark: listed apart in the source
# [12] = molecular target: T7, Heat shock factor protein 1 (Mus musculus, UniProt P38532); experiment: inhibition of MG132-induced HSE-luciferase signal, confirmation, cell-based, NIH3T3, luminescence, dose retest (AID 2382); type: functional;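 further: NIH3T3 fibroblasts with HSF1-driven luciferase reporter stressed by proteasome inhibitor MG132; luminescence from HSF1-driven luciferase expression after 8 hours of MG132 stress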
# T7 sequence (P38532 whole entry): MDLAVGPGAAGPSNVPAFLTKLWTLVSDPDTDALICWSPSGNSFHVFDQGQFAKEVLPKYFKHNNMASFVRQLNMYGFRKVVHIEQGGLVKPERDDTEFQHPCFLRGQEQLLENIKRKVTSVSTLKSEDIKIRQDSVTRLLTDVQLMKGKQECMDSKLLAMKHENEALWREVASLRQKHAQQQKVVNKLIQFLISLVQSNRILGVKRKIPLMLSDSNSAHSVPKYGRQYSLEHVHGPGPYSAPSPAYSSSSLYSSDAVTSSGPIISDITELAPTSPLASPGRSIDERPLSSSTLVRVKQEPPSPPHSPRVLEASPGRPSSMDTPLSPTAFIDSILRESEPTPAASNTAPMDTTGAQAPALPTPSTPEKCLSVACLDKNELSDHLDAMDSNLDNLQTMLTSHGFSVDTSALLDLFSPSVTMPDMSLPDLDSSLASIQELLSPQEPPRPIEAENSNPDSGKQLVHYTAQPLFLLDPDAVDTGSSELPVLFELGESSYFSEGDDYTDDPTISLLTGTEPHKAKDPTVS
# [13] = cytotoxicity in HEK-293T cells, dose response, cytotoxicity control for BCR NF-kB inhibitor project, luminescence, B-cell screen hits (AID 489021); type: functional, cell-based;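 further: HEK-293T cells carrying an NF-kB luciferase reporter; cells exposed to compound for about 14 hours before viability readout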
# [14] = molecular target: T8, Short transient receptor potential channel 4 (Mus musculus, UniProt Q9QUQ5); experiment: mouse TRPC4 channel activators, dose response, cell-based, HEK293 TRPC4/mu-opioid, Fluo-4 calcium (AID 434937); type: functional
# T8 sequence (Q9QUQ5 whole entry): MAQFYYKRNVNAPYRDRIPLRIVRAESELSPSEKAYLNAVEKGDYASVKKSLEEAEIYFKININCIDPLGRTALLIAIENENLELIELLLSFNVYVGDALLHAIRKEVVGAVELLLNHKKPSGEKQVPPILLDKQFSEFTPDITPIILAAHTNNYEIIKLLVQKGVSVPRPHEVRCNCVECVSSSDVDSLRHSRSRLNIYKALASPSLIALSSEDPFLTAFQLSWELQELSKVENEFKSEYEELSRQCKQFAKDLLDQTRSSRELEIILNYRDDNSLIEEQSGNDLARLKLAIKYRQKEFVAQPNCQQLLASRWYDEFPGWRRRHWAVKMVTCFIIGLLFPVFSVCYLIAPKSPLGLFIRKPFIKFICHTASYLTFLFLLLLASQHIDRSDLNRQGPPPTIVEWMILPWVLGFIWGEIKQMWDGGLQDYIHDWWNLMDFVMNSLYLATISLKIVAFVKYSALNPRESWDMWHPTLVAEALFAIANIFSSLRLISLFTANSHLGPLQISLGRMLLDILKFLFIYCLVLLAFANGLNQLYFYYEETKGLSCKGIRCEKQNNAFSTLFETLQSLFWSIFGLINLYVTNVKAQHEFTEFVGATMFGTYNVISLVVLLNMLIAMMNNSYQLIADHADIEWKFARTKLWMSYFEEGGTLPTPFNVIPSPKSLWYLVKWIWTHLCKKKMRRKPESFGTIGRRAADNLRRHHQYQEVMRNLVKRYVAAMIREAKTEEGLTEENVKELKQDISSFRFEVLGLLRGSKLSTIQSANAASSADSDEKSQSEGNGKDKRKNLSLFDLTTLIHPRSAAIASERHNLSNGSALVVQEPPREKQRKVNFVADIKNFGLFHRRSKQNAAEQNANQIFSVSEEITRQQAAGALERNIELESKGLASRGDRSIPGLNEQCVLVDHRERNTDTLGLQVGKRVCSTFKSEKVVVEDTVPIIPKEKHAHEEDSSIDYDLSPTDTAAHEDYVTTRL
# Nonstructural protein 1 = Nonstructural protein 1 (Influenza A virus, UniProt Q194T2); type: functional, Influenza A virus (A/California/07/2009(H1N1))
# Chain of Nonstructural protein 1 (Q194T2 whole entry): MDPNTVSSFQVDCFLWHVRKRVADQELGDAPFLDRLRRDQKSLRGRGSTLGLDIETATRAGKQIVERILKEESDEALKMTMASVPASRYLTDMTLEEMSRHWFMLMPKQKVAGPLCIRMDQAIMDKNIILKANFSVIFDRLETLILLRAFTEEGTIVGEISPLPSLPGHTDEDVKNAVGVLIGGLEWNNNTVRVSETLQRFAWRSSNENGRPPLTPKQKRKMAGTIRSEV
# [15] = Shn3 3'UTR reporter inhibitors, dose response, cell-based, Clone20 osteoblasts, firefly luciferase, cherry-picked (AID 624132); type: functional;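 further: firefly luciferase luminescence from reporter carrying the Shn3 3'UTR in osteoblasts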
# [16] = HepG2 cell cytotoxicity, dose response, cytotoxicity control for Shn3 inhibitor project, CellTiter-Glo, cherry-picked (AID 624134); type: functional, cell-based
# [17] = control 3'UTR Renilla luciferase suppression, dose response, counter-screen for Shn3 inhibitor project, cell-based, Clone20-Shn3RL, cherry-picked (AID 624133); type: functional
# T1 sequence (P08684 whole entry): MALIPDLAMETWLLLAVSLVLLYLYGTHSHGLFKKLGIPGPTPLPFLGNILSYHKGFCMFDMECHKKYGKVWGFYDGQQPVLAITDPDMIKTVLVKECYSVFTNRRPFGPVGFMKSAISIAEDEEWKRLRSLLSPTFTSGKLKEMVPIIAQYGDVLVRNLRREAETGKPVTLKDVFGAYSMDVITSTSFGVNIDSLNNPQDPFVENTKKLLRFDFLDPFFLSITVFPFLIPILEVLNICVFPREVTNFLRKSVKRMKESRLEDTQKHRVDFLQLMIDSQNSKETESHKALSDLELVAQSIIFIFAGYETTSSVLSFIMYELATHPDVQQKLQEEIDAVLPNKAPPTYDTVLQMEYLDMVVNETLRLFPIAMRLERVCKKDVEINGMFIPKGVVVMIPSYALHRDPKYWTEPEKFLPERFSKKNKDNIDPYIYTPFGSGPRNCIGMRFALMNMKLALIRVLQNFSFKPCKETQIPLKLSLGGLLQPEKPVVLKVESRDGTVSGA
smiles,measurement,setting,value
O=C(c1cnccn1)N1CCC2(CC1)CCN(c1ccccc1)CC2,AC50,Cytochrome P450 3A4 [1],inconclusive
CC(C)N1C(=O)NC(=O)C2(Cc3cc([N+](=O)[O-])ccc3N(C)C2c2ccccc2)C1=O (centres undefined),CC50,[2],> 40 µM (active)
same,CC50,[3],> 40 µM (active)
same,IC50,cells,27.3 µM (active)
CCCCCCCCCCC/C=C\C(C)(C)/C=C\CCCC(=O)O,AC50,Cytochrome P450 2C19; read-out: AC50,25.1 µM (inconclusive)
same,AC50,Cytochrome P450 2C9 [4],15.8 µM (inconclusive)
same,AC50,Cytochrome P450 3A4 [1],inconclusive
CNc1oc(-c2cccs2)nc1C#N,AC50,Cytochrome P450 3A4 [5],28.2 µM (inconclusive)
same,AC50,Cytochrome P450 2C9 [6],inconclusive
O=C(Nc1nnc(-c2ccc(Cl)cc2)o1)c1nc2ccccc2s1,EC50,[7],0.289 µM (active)
same,EC50,Streptococcus,0.936 µM (active)
same,CC50,[3],> 40 µM (active)
same,AC50,[8],3.56 µM (active)
same,IC50,cells,1.5 µM (active)
same,EC50,[9],2.26 µM (active)
CSc1ccc(S(=O)(=O)Nc2ccc3c4c(cccc24)CC3)cc1,AC50,Cytochrome P450 2D6,14.1 µM (inconclusive)
same,AC50,Cytochrome P450 2C9 [6],inconclusive
Cc1ccc(NN=C2C(=O)NC(=O)NC2=O)c([N+](=O)[O-])c1,AC50,Cytochrome P450 2C19,inconclusive
same,AC50,Cytochrome P450 1A2,17.8 µM (inconclusive)
same,AC50,Cytochrome P450 2C9 [6],inconclusive
NC(=O)CC(NC(=O)Cc1cccc2ccccc12)c1ccc(NC2CCCCCC2)c([N+](=O)[O-])c1 (centres undefined),IC50,SUMO-activating enzyme,> 100 µM (inactive)
CCc1cccc2c(C(=O)C(NC(C)CC)c3ccccc3)c[nH]c12 (centres undefined),IC50,Bcl-2-related protein A1,> 20 µM (inactive)
same,IC50,[10],16.6 µM (active)
same,IC50,[11],9.25 µM (active)
COc1cccc(OCC(=O)NN=C2c3ccccc3-c3ccccc32)c1,AC50,Cytochrome P450 2C9 [6],inconclusive
Cc1nn(CC(=O)NCCCN2CCC(Cc3ccccc3)CC2)c(=O)c2cc(-c3ccccc3)nn12,EC50,[12],> 195 µM (not active)
same,IC50,Bcl-2-related protein A1,> 20 µM (inactive)
same,IC50,[10],11.4 µM (active)
same,IC50,[11],4.59 µM (active)
Cc1cc(OC(=O)c2ccccc2Cl)cc(=O)n1C,IC50,[13],> 80 µM (inactive)
O=C(Nc1ccc(C(=O)NCCCN2CCN(c3ccc(F)cc3)CC2)cc1)C1=CSCCO1,IC50,Bcl-2-related protein A1,> 20 µM (inactive)
same,IC50,[10],12.5 µM (active)
same,IC50,[11],10.3 µM (active)
Cc1ccc(C(=O)N2CCCC(c3ccc(Cl)cc3)=N2)cc1,IC50,[13],> 80 µM (inactive)
COc1ccc(C(CCNCc2ccc(N(C)C)cc2)c2ccccc2OC)cc1 (centres undefined),EC50,[14],10.6 µM (active)
same,IC50,Nonstructural protein 1,20.2 µM (active)
O=C(Nc1nnc(-c2ccccc2SCc2ccccc2)s1)Nc1ccccc1F,IC50,SUMO-activating enzyme,46.5 µM (active)
CCn1c(=O)cc(OCC(=O)Nc2ccc(OC)c(OC)c2)c2ccccc21,IC50,[13],> 80 µM (inactive)
CCCS(=O)(=O)c1ncc(Cl)c(C(=O)Nc2ccc(S(=O)(=O)Nc3ncccn3)cc2)n1,IC50,Bcl-2-related protein A1,> 20 µM (inactive)
same,IC50,[10],14 µM (active)
same,IC50,[11],> 20 µM (inactive)
Cc1cccc(Oc2coc3cc(OC(=O)c4cccs4)ccc3c2=O)c1,AC50,Cytochrome P450 1A2,14.1 µM (inconclusive)
same,AC50,Cytochrome P450 2C9 [6],inconclusive
NNc1nccc(Nc2ccccc2C(=O)O)n1,IC50,Nonstructural protein 1,8.21 µM (active)
Cc1ccc(S(=O)(=O)N2CCCCC2CCNC(=O)C(=O)NCc2ccncc2)cc1 (centres undefined),IC50,[13],> 80 µM (inactive)
Oc1c(CN2CCCCC2)ccc2cccnc12,IC50,Nonstructural protein 1,2.05 µM (active)
same,AC50,[15],2.11 µM (active)
same,AC50,[16],52.3 µM (active)
same,AC50,[17],3.77 µM (active)
